Target: T1, Mac-1 (Homo sapiens, UniProt P05107+P11215)
T1 construct: isolate neutrophils from ethylenediaminetetraacetic acid (EDTA)-treated venous blood obtained from healthy human volunteers; endogenous in cells; host or cells: human neutrophils (PMN) isolated from venous blood of healthy volunteers
Test: Human neutrophil Mac-1 adhesion assay (fMLP-stimulated PMN adhesion to KLH-coated plates)
Format: cell-based
Details: human neutrophils, read-out: percent drug inhibition vs. stimulus control
Method: Protocol for Human Neutrophil Mac-1 Adhesion Assay
Namely, we utilized Ferrante and Thong's methodology to isolate neutrophils from ethylenediaminetetraacetic acid (EDTA)-treated venous blood obtained from healthy human volunteers. Keyhole limpet hemocyanin (KLH) coated microtiter plates were prepared as follows:
All pipetting was automated using the Cetus Pro/Pette (Perkin-Elmer; division of Applied Biosystems, Foster, Calif.). KLH, Megathura crenulata; Calbiochem-Novabiochem, La Jolla, Calif., was prepared at a concentration of 0.5 mg/mL in Dulbecco's PBS phosphate buffered saline (PBS) with Ca^++, pH 7.2 (DPBS).
Microtiter plates are prewashed with 50% EtOH for 1 hour at 37° C., then drained and blotted to dryness. Then 0.3 mL KLH solution was pipetted into each well of the 96 well microtiter plate, covered and incubated overnight at 37° C. […]
a. mean unstimulated cell control OD is determined and subtracted from all other values b. mean net stimulated, e.g., FMLP, control values are determined c. mean drug values are determined and percent drug inhibition vs. stimulus control are calculated as follows: [formula] d. IC50 determinations, plotting logdose vs. percent inhibition, are determined by linear regression analysis using the least squares method.

T1 sequence (P05107 23-769, other chains not shown): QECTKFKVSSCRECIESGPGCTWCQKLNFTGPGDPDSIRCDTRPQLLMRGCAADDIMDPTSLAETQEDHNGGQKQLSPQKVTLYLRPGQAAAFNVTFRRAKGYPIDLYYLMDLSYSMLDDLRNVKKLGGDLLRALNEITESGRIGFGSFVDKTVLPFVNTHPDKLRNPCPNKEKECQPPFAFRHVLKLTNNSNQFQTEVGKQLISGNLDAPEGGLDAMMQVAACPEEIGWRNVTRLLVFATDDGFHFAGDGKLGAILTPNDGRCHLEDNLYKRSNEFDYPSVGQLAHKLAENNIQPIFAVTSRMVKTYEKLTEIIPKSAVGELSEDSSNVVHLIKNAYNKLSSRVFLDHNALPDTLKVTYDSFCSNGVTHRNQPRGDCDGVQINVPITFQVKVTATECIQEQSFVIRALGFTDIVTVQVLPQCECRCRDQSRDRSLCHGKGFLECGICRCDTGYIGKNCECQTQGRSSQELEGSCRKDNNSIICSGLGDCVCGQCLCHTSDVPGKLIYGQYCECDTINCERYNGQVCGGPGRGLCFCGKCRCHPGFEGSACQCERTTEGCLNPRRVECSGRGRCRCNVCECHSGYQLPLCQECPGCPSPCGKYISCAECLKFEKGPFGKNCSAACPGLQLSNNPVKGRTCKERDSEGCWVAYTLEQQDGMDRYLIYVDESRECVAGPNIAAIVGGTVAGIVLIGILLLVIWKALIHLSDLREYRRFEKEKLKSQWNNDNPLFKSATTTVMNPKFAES

Structure (SMILES) | inhibition at 33 µM [%]
CC(C)Oc1c(C(=O)Nc2nnn[nH]2)sc2c1CCC2 [Example 2, 3-Isopropoxy-5,6-dihydro-4H-cyclopenta[b]thiophene-2-carboxylic acid (1H-tetrazol-5-yl)-amide] | 27
CC(C)Oc1c(C(=O)Nc2nnn[nH]2)sc2c1CS(=O)(=O)CC2 [Example 6, 3-Isopropoxy-5,5-dioxo-6,7-dihydro-4H-thieno[3,2-c]thiopyran-2-carboxylic acid (1H-tetrazol-5-yl) amide] | 38

— US5464855A, “Thiophene-2-carboxamidotetrazoles and pharmaceutical use thereof” (Warner-Lambert Company, priority 1994, dated 1995)
